Laboratory results from patent US9072698B2, “Method for screening anti-cancer compounds inhibiting function of TM4SF5 and anti-cancer composition containing chalcone compounds” (Seoul National University Industry Foundation, priority 2006, dated 2015).
In brackets after ≈: the same amount, converted by molar mass.

How the values were obtained:
Format in all cases: cell-based
[1] = system: PC-3 (prostate adenocarcinoma); assay: In vitro cytotoxicity, sulforhodamine B (SRB) method, PC-3; conditions: Homo sapiens; PC-3, SRB method; read-out: cytotoxicity (ED50) PC-3
Method: (§1) The chalcone derivatives of the present invention were evaluated for in vitro cytotoxicity against human carcinoma cell lines using a sulforhodamine B (SRB) method, which was developed in 1989 by the National Cancer Institute (NCI), USA.
(§2) HCT15 (colon adenocarcinoma; ATCC CCL-225), PC-3 (prostate adenocarcinoma; ATCC CRL-1435), and A-549 (lung carcinoma; ATCC CCL-185) cell lines were used. All of these carcinoma cells were sub-cultured at the Korean Research Institute of Bioscience and Biotechnology (KRIBB), Korea.
(§3) The human carcinoma cell lines were cultured in 10% FCS-containing RPMI 1640 medium (Gibco Cat. No. 31800) in an incubator at 37° C. under 5% CO2, and sub-cultured twice per week.
(§4) Cells were detached from the attached surface using 0.25% Trypsin (Sigma) and 3 mM CDTA (1,2-cyclohexane diamine tetraacetic acid, Sigma) in phosphate buffered saline (PBS, Sigma).
(§5) Compounds to be tested (the chalcone derivatives set forth in Table 1) were dissolved in a small amount of dimethylsulfoxide (DMSO, Sigma), and diluted in culture medium to a desired concentration. The final concentration of DMSO was less than 0.5%. The diluted compounds (final concentration: 30, 10, 3, 1 and 0.3 μg/ml) were sterilized through a 0.22-μm microfilter (Millipore). The cytotoxicity of the compounds to human carcinoma cell lines was assessed using a typical SRB method.

[2] = system: A-549 (lung carcinoma); assay: In vitro cytotoxicity, sulforhodamine B (SRB) method, A-549; conditions: Homo sapiens, A549; A-549, SRB method; read-out: cytotoxicity (ED50) A-549
Method: as §1, §2, §3, §4, §5

[3] = system: HCT15 (colon adenocarcinoma); assay: In vitro cytotoxicity, sulforhodamine B (SRB) method, HCT15; conditions: Homo sapiens; HCT-15, SRB method; read-out: cytotoxicity (ED50) HCT-15
Method: as §1, §2, §3, §4, §5

| SMILES | IC50 [1] [µg/mL] | IC50 [2] [µg/mL] | IC50 [3] [µg/mL] |
| --- | --- | --- | --- |
| O=C(/C=C/c1ccc(O)c(O)c1)c1ccc(NS(=O)(=O)c2ccc([N+](=O)[O-])cc2)cc1 [Compound 75, 4′-(p-nitrobenzensulfonylamino)-3,4-dihydroxychalcone] | 15 (≈ 34.1 µM) | 14 (≈ 31.8 µM) | 8 (≈ 18.2 µM) |
| O=C(/C=C/c1ccc(O)c(O)c1)c1ccc(NS(=O)(=O)c2cccc([N+](=O)[O-])c2)cc1 [Compound 76, 4′-(m-nitrobenzensulfonylamino)-3,4-dihydroxychalcone] | 17 (≈ 38.6 µM) | 11 (≈ 25 µM) | 12 (≈ 27.2 µM) |
| O=C(/C=C/c1ccc(O)c(O)c1)c1ccc(NS(=O)(=O)c2ccccc2[N+](=O)[O-])cc1 [Compound 77, 4′-(o-nitrobenzensulfonylamino)-3,4-dihydroxychalcone] | 12 (≈ 27.2 µM) | 11 (≈ 25 µM) | 10 (≈ 22.7 µM) |
| Nc1ccc(S(=O)(=O)Nc2ccc(C(=O)/C=C/c3ccc(O)c(O)c3)cc2)cc1 [Compound 78, 4′-(p-aminobenzensulfonylamino)-3,4-dihydroxychalcone] | 7 (≈ 17.1 µM) | 10 (≈ 24.4 µM) | 5 (≈ 12.2 µM) |
| Nc1cccc(S(=O)(=O)Nc2ccc(C(=O)/C=C/c3ccc(O)c(O)c3)cc2)c1 [Compound 79, 4′-(m-aminobenzensulfonylamino)-3,4-dihydroxychalcone] | 15 (≈ 36.5 µM) | 8 (≈ 19.5 µM) | 7 (≈ 17.1 µM) |
| Nc1ccccc1S(=O)(=O)Nc1ccc(C(=O)/C=C/c2ccc(O)c(O)c2)cc1 [Compound 80, 4′-(o-aminobenzensulfonylamino)-3,4-dihydroxychalcone] | 23 (≈ 56 µM) | 11 (≈ 26.8 µM) | 13 (≈ 31.7 µM) |
| O=C(/C=C/c1ccc(O)c(O)c1)c1ccc(NS(=O)(=O)c2ccccc2)cc1 [Compound 81, 4′-(benzensulfonylamino)-3,4-dihydroxychalcone] | 24 (≈ 60.7 µM) | 28 (≈ 70.8 µM) | 14 (≈ 35.4 µM) |
| CS(=O)(=O)Nc1ccc(C(=O)/C=C/c2ccc(O)c(O)c2)cc1 [Compound 82, 4′-(methanesulfonylamino)-3,4-dihydroxychalcone] | 22 (≈ 66 µM) | 17 (≈ 51 µM) | 12 (≈ 36 µM) |
| Cc1ccc(S(=O)(=O)Nc2ccc(C(=O)/C=C/c3ccc(O)cc3Cl)cc2)cc1 [Compound 83, 4′-(p-toluenebenzensulfonylamino)-2-chloro-4-hydroxychalcone] | 14 (≈ 32.7 µM) | 11 (≈ 25.7 µM) | 15 (≈ 35.1 µM) |
| O=C(/C=C/c1ccc(O)cc1)c1ccc(OS(=O)(=O)c2ccc(O)cc2)cc1 [Compound 84, 4′-(p-hydroxybenzenesulfonate)-4-hydroxychalcone] | 22 (≈ 55.5 µM) | 38 (≈ 95.9 µM) | 32 (≈ 80.7 µM) |
| O=C(/C=C/c1cccc(O)c1)c1ccc(OS(=O)(=O)c2ccc(O)cc2)cc1 [Compound 85, 4′-(p-hydroxybenzenesulfonate)-3-hydroxychalcone] | 28 (≈ 70.6 µM) | 33 (≈ 83.2 µM) | 29 (≈ 73.2 µM) |
| O=C(/C=C/c1ccccc1O)c1ccc(OS(=O)(=O)c2ccc(O)cc2)cc1 [Compound 86, 4′-(p-hydroxybenzenesulfonate)-2-hydroxychalcone] | 34 (≈ 85.8 µM) | 30 (≈ 75.7 µM) | 26 (≈ 65.6 µM) |
| O=C(/C=C/c1ccc(O)cc1)c1ccc(OS(=O)(=O)c2cccc(O)c2)cc1 [Compound 87, 4′-(m-hydroxybenzenesulfonate)-4-hydroxychalcone] | 21 (≈ 53 µM) | 20 (≈ 50.5 µM) | 19 (≈ 47.9 µM) |
| O=C(/C=C/c1cccc(O)c1)c1ccc(OS(=O)(=O)c2cccc(O)c2)cc1 [Compound 88, 4′-(m-hydroxybenzenesulfonate)-3-hydroxychalcone] | 28 (≈ 70.6 µM) | 32 (≈ 80.7 µM) | 21 (≈ 53 µM) |
| O=C(/C=C/c1ccccc1O)c1ccc(OS(=O)(=O)c2cccc(O)c2)cc1 [Compound 89, 4′-(m-hydroxybenzenesulfonate)-2-hydroxychalcone] | 33 (≈ 83.2 µM) | 37 (≈ 93.3 µM) | 24 (≈ 60.5 µM) |
| O=C(/C=C/c1ccc(O)c(O)c1)c1ccc(OS(=O)(=O)c2ccc(O)cc2)cc1 [Compound 90, 4′-(p-hydroxybenzenesulfonate)-3,4-dihydroxychalcone] | 8 (≈ 19.4 µM) | 4 (≈ 9.7 µM) | 6 (≈ 14.5 µM) |
| O=C(/C=C/c1cccc(O)c1O)c1ccc(OS(=O)(=O)c2ccc(O)cc2)cc1 [Compound 91, 4′-(p-hydroxybenzenesulfonate)-2,3-dihydroxychalcone] | 14 (≈ 33.9 µM) | 10 (≈ 24.2 µM) | 7 (≈ 17 µM) |
| O=C(/C=C/c1ccc(O)cc1O)c1ccc(OS(=O)(=O)c2ccc(O)cc2)cc1 [Compound 92, 4′-(p-hydroxybenzenesulfonate)-2,4-dihydroxychalcone] | 7 (≈ 17 µM) | 9 (≈ 21.8 µM) | 8 (≈ 19.4 µM) |
| O=C(/C=C/c1cc(O)ccc1O)c1ccc(OS(=O)(=O)c2ccc(O)cc2)cc1 [Compound 93, 4′-(p-hydroxybenzenesulfonate)-2,5-dihydroxychalcone] | 14 (≈ 33.9 µM) | 8 (≈ 19.4 µM) | 6 (≈ 14.5 µM) |
| O=C(/C=C/c1ccc(O)c(O)c1)c1ccc(OS(=O)(=O)c2cccc(O)c2)cc1 [Compound 94, 4′-(m-hydroxybenzenesulfonate)-3,4-dihydroxychalcone] | 16 (≈ 38.8 µM) | 11 (≈ 26.7 µM) | 7 (≈ 17 µM) |
| O=C(/C=C/c1cccc(O)c1O)c1ccc(OS(=O)(=O)c2cccc(O)c2)cc1 [Compound 95, 4′-(m-hydroxybenzenesulfonate)-2,3-dihydroxychalcone] | 11 (≈ 26.7 µM) | 9 (≈ 21.8 µM) | 9 (≈ 21.8 µM) |
| O=C(/C=C/c1ccc(O)cc1O)c1ccc(OS(=O)(=O)c2cccc(O)c2)cc1 [Compound 96, 4′-(m-hydroxybenzenesulfonate)-2,4-dihydroxychalcone] | 24 (≈ 58.2 µM) | 7 (≈ 17 µM) | 8 (≈ 19.4 µM) |
| O=C(/C=C/c1cc(O)ccc1O)c1ccc(OS(=O)(=O)c2cccc(O)c2)cc1 [Compound 97, 4′-(m-hydroxybenzenesulfonate)-2,5-dihydroxychalcone] | 8 (≈ 19.4 µM) | 6 (≈ 14.5 µM) | 11 (≈ 26.7 µM) |
